Assay results from BigSolDB 2.1.

CC1(C)S[C@@H]2[C@H](NC(=O)[C@H](NC(=O)N3CCNC3=O)c3ccccc3)C(=O)N2[C@H]1C(=O)O
solubility (mole fraction)
Details	278.15 K	283.15 K	288.15 K	293.15 K	298.15 K	303.15 K	308.15 K	313.15 K	318.15 K	323.15 K
in THF	0.00106	0.00115	0.00131	0.00149	0.00164	0.00178	0.00199	0.00218	0.00243	0.00276
in acetone	0.000492	0.000572	0.000667	0.000823	0.000919	0.00112	0.00133	0.00155	0.00192	0.00223
in acetonitrile	0.000491	0.000551	0.000643	0.000757	0.000836	0.000934	0.00108	0.00122	0.00137	0.00156
in ethanol	0.000687	0.000805	0.000954	0.00113	0.00131	0.00165	0.00197	0.00245	0.00296	0.00368
in ethyl acetate	0.000219	0.000243	0.000287	0.000311	0.000353	0.000411	0.000462	0.000528	0.000613	0.000688
in isopropanol	9.02e-05	0.000111	0.000132	0.000162	0.000196	0.00024	0.000289	0.000376	0.000456	0.000557
in isopropyl acetate	6.88e-05	7.89e-05	9.25e-05	0.000102	0.000116	0.00013	0.000148	0.00017	0.000192	0.000219
in methanol	0.000281	0.00033	0.000403	0.000478	0.000602	0.000728	0.000948	0.00115	0.00142	0.00178
in methyl acetate	0.00027	0.000313	0.000372	0.000463	0.000565	0.000651	0.000758	0.000921	0.00107	0.0013
